Source: PMC9176691, “Design, synthesis and biological evaluation of novel diosgenin–benzoic acid mustard hybrids with potential anti-proliferative activities in human hepatoma HepG2 cells” (Journal of Enzyme Inhibition and Medicinal Chemistry, 2022)

What was measured:
HepG2 cells [1] = experiment: MTT anti-proliferative assay, HepG2; assay type: cell-based, human
MCF-7 cells = experiment: MTT anti-proliferative assay, MCF-7; assay type: cell-based, human
HeLa cells = experiment: MTT anti-proliferative assay, HeLa; assay type: cell-based; settings: Homo sapiens, 48 h, read-out: IC50 HeLa
GES-1 cells = experiment: MTT cytotoxicity assay, normal GES-1; assay type: cell-based, human
HepG2 cells [2] = experiment: Flow cytometric analysis of cell cycle distribution (PI); assay type: cell-based, human; settings: 24 h
Method: HepG2 cells were seeded into 6-well plates and allowed to grow for a period of 12 h. After incubation with different concentrations of 14f (0, 5, 10, and 20 µM) for 24 h, the cells were trypsinized, washed with phosphate-buffered saline (PBS), and fixed in 1.5 ml of 75% ethanol for the night, at 4 °C, following which RNase and propidium iodide (PI) (Multi Sciences Biotech Co. Ltd.) were added to the cells. The cell cycle distribution and data processing were analysed using a flow cytometer (FACSCalibur™, BD Biosciences, USA).

HepG2 cells [3] = experiment: Apoptosis by flow cytometry (Annexin V-FITC/PI); assay type: cell-based, human; settings: 48 h
Method: Briefly, HepG2 cells were incubated in 6-well plates for 24 h, and then treated with 14f (0, 5, 10, and 20 µM) for 48 h. Following that, the cells were washed once with pre-cold PBS, re-suspended in 300 µL of buffer solution, and stained with 10 µL of Annexin V-FITC and 5 µL of PI staining solution, under the conditions of 37 °C and absence of any light source, for 10 min. Finally, the samples were immediately measured using a flow cytometer. The percentages of apoptotic cells were determined on the CellQuest™ software (BD Biosciences).

HepG2 cells [4] = experiment: Mitochondrial membrane potential (JC-1, flow cytometry); assay type: cell-based, human; settings: 48 h (lower quadrant value)
Method: HepG2 cells were plated into 6-well plates for 12 h. Following treatment with varying concentrations of 14f for 48 h, the cells were incubated with JC-1 dyeing working solution for 0.5 h at room temperature, then washed with staining buffer 3 times and re-suspended in 300 µL of staining buffer. The cells were finally assessed and analysed using a flow cytometer (FACSCalibur™).

[5] = test system: CDK2, CDK4, CDK6, cyclin D1 and cyclin E1; assay type: cell-based, human
[6] = test system: CDK2, CDK4, CDK6, cyclin D1, and cyclin E1; experiment: Western blot of G0/G1 phase-related proteins; assay type: cell-based, human; settings: HepG2 cells, 48 h
Method: (§1) To analyse the effect of compound 14f on protein levels, western blot assay was employed, as elaborated previously. The proteins were acquired by collecting HepG2 cells treated with varying concentrations of 14f for 48 h and adding them to lysis buffer, in an ice bath for 30 min. After quantitation of protein concentration using BCA assay, equal amounts of total protein were separated using 10% sodium dodecyl sulphate-polyacrylamide gel electrophoresis and then transferred onto polyvinylidene fluoride membranes. The membranes were incubated with 5% bovine serum albumin solution for 1.5 h at 37 °C, followed by incubation with primary antibody overnight, and finally secondary antibody for 2 h at 37 °C. The blots were detected using enhanced chemiluminescence reagent with a fully automatic gel imaging system (ChemiDoc™ MP, Bio-Rad). The relative expression was calculated by normalising the expression of the control group to 1 for comparison.

[7] = test system: Bax, Bcl-2, caspase 9, and caspase 3; assay type: cell-based, human
caspase 9 = experiment: Caspase 9 activity in cell lysates; assay type: cell-based, human; settings: HepG2 cell lysates, 48 h
Method: (§2) The activities of caspase 9 and caspase 3 in the cell lysates were evaluated as described previously. The harvested HepG2 cells treated with varying concentrations of 14f for 48 h were lysed using chilled 100 µL lysis buffer, to extract the total protein. The protein concentration was assessed using a Bradford Kit. The protein samples were incubated with assay buffer and colorimetric substrate (Ac-DEVD-pNA or Ac-LEHD-pNA) at room temperature for 2 h, according to the manufacturer’s protocol. The released pNAs were measured at the wavelength of 405 nm using a Multiskan® Spectrum system. The experiments were performed in triplicate.

caspase 3 = experiment: Caspase 3 activity in cell lysates; assay type: cell-based, human; settings: HepG2 cell lysates, 48 h
Method: as §2

Bax and Bcl-2 = experiment: Western blot of Bax and Bcl-2; assay type: cell-based, human; settings: HepG2 cells, 48 h
Method: as §1

HepG2 cells [8] = experiment: Hoechst 33342/PI staining, cell morphology; assay type: cell-based, human; settings: HepG2, 5, 10 and 20 μM, 48 h
Method: First, HepG2 cells were plated into 6-well plates, at a density of 1 × 10^6 cells/well. Thereafter, 14f (0, 5, 10, and 20 µM) was added to the cells and they were incubated with it for 48 h; 0.1% DMSO was used as a vehicle control. The cellular morphology was then observed and photographed using a light microscope (Olympus, 1 × 51, Japan). Next, HepG2 cells were incubated with 14f (0, 5, 10, and 20 µM) for 48 h, after which the cells were collected and stained with a mixture of Hoechst 33342 and PI in buffer solution, for 20 min at room temperature. Finally, the cell samples were studied and photographed under a fluorescence microscope (Obeserve.A1, Zeiss, Germany).

CC(=O)OC1CCC2(C)C(=CCC3C2CCC2(C)C3CC3OC(CCC(C)C(=O)N4CCCN(C(=O)c5ccc(N(CCCl)CCCl)cc5)CC4)C(C)C32)C1 [Compound 14f, (22 R,25R)-(4–(1-homopiperazinyl)-4-(bis(2-chloroethyl)amino)benzamido)-3β-acetoxy-5-en-furostan-26-amide]
potency fold higher than that of Mitomycin C (HepG2 cells [1]): 14.4 fold
IC50 (HepG2 cells [1]; Homo sapiens, HepG2, 48 h, read-out: IC50 HepG2): 2.26 ± 0.87 µM
fold more active than DSG (MCF-7 cells): about 1.7 fold
IC50 (MCF-7 cells; Homo sapiens, MCF7, 48 h, read-out: IC50 MCF-7): 11.1 ± 1.01 µM
IC50 (HeLa cells): 41.6 ± 3.12 µM
SI (GES-1 cells): >44.25
IC50 (GES-1 cells; Homo sapiens, GES1, 48 h, read-out: IC50 GES-1): > 100 µM
effect on the cell cycle (HepG2 cells [2]; HepG2, 5, 10 and 20 µM): arrested the cell cycle at the G0/G1 phase
cells in G0/G1 phase (HepG2 cells [2]; HepG2, 14f 5 μM): 33.76%
cells in G0/G1 phase (HepG2 cells [2]; HepG2, 14f 10 μM): 40.38%
cells in G0/G1 phase (HepG2 cells [2]; HepG2, 14f 20 μM): 46.40%
apoptotic cells (HepG2 cells [3]; HepG2, 14f 5 μM): 9.80%
apoptotic cells (HepG2 cells [3]; HepG2, 14f 10 μM): 14.38%
apoptotic cells (HepG2 cells [3]; HepG2, 14f 20 μM): 28.13%
percentage of mitochondrial depolarisation (HepG2 cells [4]; HepG2, JC-1, 14f 5 µM): 7.90%
percentage of mitochondrial depolarisation (HepG2 cells [4]; HepG2, JC-1, 14f 10 µM): 15.55%
percentage of mitochondrial depolarisation (HepG2 cells [4]; HepG2, JC-1, 14f 20 µM): 40.46%
genes levels of CDK2, CDK4, CDK6, cyclin D1 and cyclin E1 [5]: decreased
expression levels of CDK2, CDK4, CDK6, cyclin D1, and cyclin E1 proteins [6]: concentration-dependently downregulate
gene expression of Bax, caspase 9, and caspase 3 [7]: high gene expression
gene expression of Bcl-2 [7]: suppressed
enzyme activity of caspase 9 (caspase 9): upregulated
enzyme activity of caspase 3 (caspase 3): upregulated
protein levels of Bax (Bax and Bcl-2): upregulated
protein levels of Bcl-2 (Bax and Bcl-2): downregulation
apoptosis seen by Hoechst 33342/PI staining (HepG2 cells [8]): increase in the apoptosis of HepG2 cells
